Source: patent publication US4814341A, “2-guanidino-4-(2-furyl) thiazoles as antiulcer agents” (priority 1988, dated 1989)
Where a name gives a salt, the structure may show the parent alone.

Legend:
[1] = tested on: conscious Heidenhain pouch dogs; assay: Gastric acid antisecretory activity, pentagastrin-stimulated acid output; format: in vivo; details: 0.1 mg/kg intravenously, overnight-fasted Heidenhain pouch dogs, lowest acid output after drug vs mean before drug
Method: The gastric acid antisecretory activity of compounds of the present invention was determined in overnight-fasted, conscious Heidenhain pouch dogs as follows:
Pentagastrin (Pentavlon-Ayerst) is used to stimulate acid output by continuous infusion into a superficial leg vein at doses earlier determined to stimulate near maximal acid output from the gastric pouch. Gastric juice is collected at 30 minute intervals following the start of a pentagastrin infusion and measured to the nearest 0.1 ml. Ten collections are taken for each dog during an experiment. Acid concentration is determined by titrating 1.0 ml. of gastric juice to pH 7.4 with 0.1N sodium hydroxide using an Autoburette and a glass electrode pH meter (Radiometer).
Drug or vehicle is given intravenously or orally 90 minutes following the start of the pentagastrin infusion, at a dose of 2 mg/kg or less. Gastric acid antisecretory effects are calculated by comparing the lowest acid output after drug administration with the mean acid output immediately before drug.

histamine H2-receptor = molecular target: T1, histamine H2-receptor (Cavia porcellus, UniProt P47747); assay: Histamine-H2 antagonist activity in isolated right atria; format: cell-based, Guinea pigs; details: guinea pig right atria, histamine dose-response, Krebs-Henseleit buffer pH 7.4, 32°C; read-out: pA2 (converted)
T1 construct: the heart removed and the right atria dissected free; from tissue; host or cells: guinea pig isolated right atria
T1 sequence (P47747 whole entry): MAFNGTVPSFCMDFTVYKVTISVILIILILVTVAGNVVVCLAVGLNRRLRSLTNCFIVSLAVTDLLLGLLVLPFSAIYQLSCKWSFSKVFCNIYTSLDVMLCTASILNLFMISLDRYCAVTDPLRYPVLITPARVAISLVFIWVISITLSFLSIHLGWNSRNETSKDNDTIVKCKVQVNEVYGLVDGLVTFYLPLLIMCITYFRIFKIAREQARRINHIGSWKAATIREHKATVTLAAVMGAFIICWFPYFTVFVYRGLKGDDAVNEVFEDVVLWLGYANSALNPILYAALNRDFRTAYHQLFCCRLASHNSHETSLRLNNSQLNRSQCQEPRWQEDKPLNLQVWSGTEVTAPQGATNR
Method: The histamine-H2 antagonist activity of compounds of the present invention was determined by the following procedure:
Guinea pigs are killed rapidly with a blow to the head, the heart removed and the right atria dissected free. Atria are suspended, isometrically, in a temperature-controlled (32°±2° C.) tissue bath (10 ml.) containing oxygenated (95% O2; 5% CO2) Krebs-Henseleit buffer (pH 7.4) and are allowed to stabilize approximately one hour during which time the tissue bath is flushed several times. Individual atrial contractions are followed with a force-displacement transducer connected to a cardiotachometer and Grass polygraph recorder. After obtaining a dose-response curve to histamine, the bath containing each atrium is flushed several times with fresh buffer and the atria re-equilibrated to basal rates. Following the return to basal rate, test compounds are added at selected final concentrations and the histamine dose-response curve is again determined in the presence of antagonist. Results are expressed as dose-ratios, the ratio of histamine concentrations required to produce one-half of maximal stimulation in the presence and absence of antagonist, and the apparent dissociation constant of the H2 -receptor antagonist pA2, is determined.

male rats = assay: Inhibition of ethanol-induced ulceration in rats; format: in vivo; details: oral dose of 30 mg/kg, fifteen minutes prior to oral absolute ethanol (1.0 ml); ulcer index vs controls
Method: The antiulcer activity of the products of this invention was determined by an ethanol-induced rat ulcer assay. In this test, overnight fasted male rats are given drug (at 30 or 3 mg/kg) or water orally fifteen minutes prior to an orally administered dose of absolute ethanol (1.0 ml.). One hour after the ethanol challenge the animals (8/group) are killed and the stomachs examined for the presence of lesions. After sacrifice the abdomen is opened and a locking hemostat placed at the pylorus. Six ml. of a 4% solution of formaldehyde is injected into the stomach with a gastric feeding tube and a second locking hemostat is used to seal the esophagus. The stomach is removed, opened along the greater curvature and examined for ulceration.
The scoring system used to quantitate the ethanol-induced lesions is given below.
For each group of animals an ulcer index is calculated as follows: EXAMPLE 8 (Cont.)
Ulceration Index=(the sume of the scores of the group)×(the sum of the number of ulcers in the group)×(the fraction of the group havnng any incidence of ulceration).
The percentage inhibition of ulcers is calculated as follows:
% Inhibition=100×[(ulcer index controls) - (ulcer index drug-treated)][…](ulcer index controls).

Row | Structure (SMILES) | inhibition (gastric acid antisecretory effect) [1] [%] | Kb (histamine H2-receptor) [nM] | inhibition of ethanol-induced ulceration (male rats) [%]
1 | CCCCCCN(C)Cc1ccc(-c2csc(NC(=N)N)n2)o1 [3 (2HBr salt), 2-Guanidino-4-(5-[N-n-hexyl-N-methylaminomethyl]-2-furyl)thiazole] | 24 | 100 | 49
2 | CCCCCCNC(=N)Nc1nc(-c2ccc(CN(C)C)o2)cs1 [4 (2HBr salt), 2-(3-n-Hexylguanidino)-4-(5-[N,N-dimethylaminomethyl]-2-furyl)thiazole] | 38 | 1000 | 93
3 | Br.Br.CN(C)Cc1ccc(-c2csc(NC(=N)N)n2)o1 [Example 2, 2-Guanidino-4-(5-[N,N-dimethylaminomethyl]-2-furyl)thiazole Dihydrobromide] | 44 | 20 | 7
